This is an account of results in patent US20210115047A1, “CDPK1 INHIBITORS, COMPOSITIONS AND METHODS RELATED THERETO” (Vyera Pharmaceutical, LLC, priority 2017, published 2021).

The assay addresses T1, T. gondii CDPK1 (tgCDPK1) (Toxoplasma gondii, UniProt Q9BJF5).
T1 sequence (Q9BJF5 1-507): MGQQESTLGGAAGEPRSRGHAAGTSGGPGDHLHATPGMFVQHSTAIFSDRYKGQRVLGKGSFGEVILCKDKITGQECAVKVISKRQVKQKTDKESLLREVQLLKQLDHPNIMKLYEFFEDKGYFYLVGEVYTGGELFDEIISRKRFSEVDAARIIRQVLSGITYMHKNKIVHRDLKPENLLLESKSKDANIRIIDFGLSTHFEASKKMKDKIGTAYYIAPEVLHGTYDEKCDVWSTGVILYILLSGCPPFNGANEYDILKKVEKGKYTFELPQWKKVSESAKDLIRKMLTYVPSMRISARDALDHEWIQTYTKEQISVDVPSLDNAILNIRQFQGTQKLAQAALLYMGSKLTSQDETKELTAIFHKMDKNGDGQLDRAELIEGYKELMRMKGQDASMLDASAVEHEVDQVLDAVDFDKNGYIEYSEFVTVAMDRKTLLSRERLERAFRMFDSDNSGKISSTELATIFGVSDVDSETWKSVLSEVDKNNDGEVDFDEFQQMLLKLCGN
Nature of the assay: Inhibition of T. gondii CDPK1 (tgCDPK1), IC50 determination. It counts as biochemical. The following applies: at least three independent replicates per compound. The procedure:
Certain of the compounds prepared as described above were assayed to determine their IC50 for inhibition of T. gondii CDPK1 (tgCDPK1). At least three independent replicates of the assay were conducted for each compound tested.
Broadly, the IC50 is the midpoint of a concentration-inhibition curve. Low values mean greater potency in that assay, high ones weaker potency in that assay. As for `Nc1ncnc2c1c(Cc1cc(F)cc(Cl)c1)nn2C1CC1` [Compound 4, 3-(3-chloro-5-fluorobenzyl)-1-cyclopropyl-1H-pyrazolo[3,4-d]pyrimidin-4-amine], the IC50 came to 91.7 nM.

With `Nc1ncnc2c1c(Cc1cccc(F)c1)nn2C1CC1` [Compound 5, 1-cyclopropyl-3-(3-fluorobenzyl)-1H-pyrazolo[3,4-d]pyrimidin-4-amine], the IC50 was found to be 25.3 nM.

`Nc1ncnc2c1c(Cc1cccc(Cl)c1)nn2C1CCC1` [Compound 6, 3-(3-chlorobenzyl)-1-cyclobutyl-1H-pyrazolo[3,4-d]pyrimidin-4-amine] showed a half-maximal inhibitory concentration (IC50) of 8.7 nM.

Molecule `Nc1ncnc2c1c(Cc1cccc(-c3ccccc3)c1)nn2C1CC1` [Compound 9, 3-([1,1′-biphenyl]-3-ylmethyl)-1-cyclopropyl-1H-pyrazolo[3,4-d]pyrimidin-4-amine] yielded an IC50 of 26.3 nM.

Molecule `Nc1ncnc2c1c(Cc1cccc(-c3cncnc3)c1)nn2C1CC1` [Compound 10, 1-cyclopropyl-3-(3-(pyrimidin-5-yl)benzyl)-1H-pyrazolo[3,4-d]pyrimidin-4-amine] showed an IC50 of 373 nM.

`Nc1ncnc2c1c(Cc1cccc(-c3ccncc3)c1)nn2C1CC1` [Compound 11, 1-cyclopropyl-3-(3-(pyridin-4-yl)benzyl)-1H-pyrazolo[3,4-d]pyrimidin-4-amine] displayed an IC50 of 1170 nM.

In the case of `Nc1ncnc2c1c(C(O)c1ccccc1)nn2C1CC1` (stereo not drawn) [Compound 16, (4-amino-1-cyclopropyl-1H-pyrazolo[3,4-d]pyrimidin-3-yl)(phenyl)methanol], the IC50 was determined as 1750 nM.

`Nc1ncnc2c1c(Cc1ccccc1)nn2C1CC1` [Compound 17, 3-benzyl-1-cyclopropyl-1H-pyrazolo[3,4-d]pyrimidin-4-amine] came in with an IC50 of 25.4 nM.

Turning to `Nc1ncnc2c1c(C(O)c1cccnc1)nn2C1CC1` (stereo not drawn) [Compound 18, (4-amino-1-cyclopropyl-1H-pyrazolo[3,4-d]pyrimidin-3-yl)(pyridin-3-yl)methanol], the IC50 stood at 4870 nM.
